From patent US20140017336A1, “CO-ADMINISTRATION OF ARSENIC COMPOUNDS AND ANTI-HERPES VIRUS ANTI-VIRALS” (priority 2011, published 2014) come the findings set out here.

Data set [1] relates to PML NB. The data set is classed as cell-based, human. The conditions noted are these: 24 hours.
For data set [2], the system named is EBV immediate early protein Zta. The data set can be described thus: Zta immunofluorescence in EBV infected A549 cells. Format: cell-based, Epstein-Barr virus. The procedure:
A549 cells were plated on 8-chambered Lab-Tek slides at 3×10^4 cells per well; chemical treatment began 24 hours after plating. At specified time points, cells were rinsed twice with PBS and fixed in 4% paraformaldehyde (freshly diluted from 16%, Electron Microscopy Science, Hatfield, Pa.) for 10 min at room temperature. The cells were then rinsed twice with PBS and permeabilized with 0.5% Triton™ X100 (Sigma) in PBS for 15 min at room temperature. Primary antibodies were applied at specified concentrations overnight in a humidified chamber at 4° C. Following 3 rinses in PBS, secondary antibodies were diluted 1:500 and applied for 1 hour at room temperature. The chambers were removed and Vectashield® with DAPI (Vector Laboratories, Burlingame, Calif. #H1200) was applied with cover slip mount. […]
To investigate the ability of ATO to disrupt PML NB in EBV infected A549 cells, cells were treated with varying doses of ATO for 24 hours and PML NBs were imaged. […] To assess whether EBV positivity affected PML protein levels, cell fractions from two separate EBV infections (A549<EBV>2C and A549<EBV>3A) and uninfected parental A549 cells were analyzed by western blot. […] To quantify the increase in Zta expression, mRNA isolated from A549<EBVBX1>3A cells treated with varying doses of ATO for 72 hours was analyzed by qRT-PCR. […]

Data set [3] relates to EBV Zta mRNA. Description: qRT-PCR of Zta mRNA in CNE1<EBV-BX1> cells. The data set is classed as cell-based, Epstein-Barr virus. A general note: Quantitative PCR measures a nucleic acid by following its amplification.
The test system of data set [4] is EBV BMRF1 mRNA. The data set can be described thus: qRT-PCR of BMRF1 mRNA in CNE1<EBV-BX1> cells. Format: cell-based, Epstein-Barr virus.
Data set [5] relates to EBV Zta protein. The data set is classed as in vivo, male nude mice. The following applies: tumors harvested at 21 days of treatment.
The subject of data set [6] is MUTU1<DNE1> cells (EBV-negative). Description: Viable cell count (trypan blue exclusion), MUTU1<DNE1> cells. The data set is classed as cell-based, human. The conditions noted are these: 10 nM or 100 nM ATO, 2 and 3 days.
Data set [7] has as its system EBV Zta. Description: Western blot of Zta in MUTU1 cells. The data set is classed as cell-based, Epstein-Barr virus. The following applies: 0, 10 nM, 100 nM ATO, day 3. Background: A western blot detects proteins with antibodies after separation by electrophoresis.
Data set [8] relates to EBNA Cp mRNA. The data set can be described thus: EBNA Cp mRNA expression in LCL<EBV1-13> cells. The following applies: three days, 10 nM ATO. The data set is classed as cell-based, Epstein-Barr virus. The procedure:
(§1) FIGS. 8A-D. B-cells recently isolated from a patient were infected with EBV, allowed to grow out for several generations (only the EBV-infected cells would be able to grow out), and frozen until use. FIGS. 8A and B. FIGS. 8A and B graph the relative percent of viability of EBV-infected B-cells as just described (LCL<EBV1-13> cells) thawed and grown in one of: media alone (“control”), media and 45 μM ganciclovir (GCV), media and […] arsenic trioxide (ATO), or media and a combination of these concentrations of GCV and ATO. The bars show the relative viability of cells after 2 days of this treatment (“2 D,” FIG. 8A), and at three days (“3 D,” FIG. 8B). FIG. 8C. Epstein-Barr nuclear antigen (“EBNA”) driven by the C promoter (“Cp”) is transcribed only during the latent phase of the virus. FIG. 8C graphs the relative expression of EBNA Cp mRNA of LCL<EBV1-13> cells grown three days (“3 D”) in media alone (“control”), media and 45 μM ganciclovir (GCV), media and 10 nM arsenic trioxide (ATO), or media and a combination of these concentrations of GCV and ATO. […] FIG. 8D. FIG. 8D graphs the relative transcription of the viral immediate early protein Zta mRNA of LCL<EBV1-13> cells grown three days (“3 D”) in media alone (“control”), media and 45 μM ganciclovir (GCV), media and 10 nM arsenic trioxide (ATO), or media and a combination of these concentrations of GCV and ATO. […]

The test system of data set [9] is Zta mRNA. Description: Zta mRNA transcription in LCL<EBV1-13> cells. The data set is classed as cell-based, Epstein-Barr virus. The following applies: three days, 10 nM ATO. The procedure: as §1
Data set [10] concerns A549<EBVBX1>3A cells. The data set can be described thus: Annexin V/propidium iodide viability, EBV infected A549 cells. The conditions noted are these: 4 days.
[11] abbreviates: 4 days, 1 nM ATO and/or 40 μM GCV.

Entries after “also recorded” stand apart in the source; their conditions may differ.

PML NB, sequence (P29590 1-418 limits assumed): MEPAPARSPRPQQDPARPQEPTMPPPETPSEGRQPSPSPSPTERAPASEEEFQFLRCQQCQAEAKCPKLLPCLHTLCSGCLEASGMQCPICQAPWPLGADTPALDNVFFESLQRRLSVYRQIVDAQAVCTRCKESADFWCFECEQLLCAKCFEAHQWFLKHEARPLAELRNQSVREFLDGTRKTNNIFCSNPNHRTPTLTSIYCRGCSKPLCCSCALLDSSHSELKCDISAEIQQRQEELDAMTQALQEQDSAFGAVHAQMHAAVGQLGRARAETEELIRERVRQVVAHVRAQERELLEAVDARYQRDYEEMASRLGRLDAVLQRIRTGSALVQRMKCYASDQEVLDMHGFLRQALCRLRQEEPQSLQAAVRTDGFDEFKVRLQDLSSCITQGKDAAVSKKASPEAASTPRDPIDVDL

As for arsenic trioxide [ATO], the “PML NB immunofluorescence signal” value in data set [1] (12.5 nM ATO) was “complete loss; also recorded: below that of baseline untreated uninfected cells”. Further, in [1] (EBV infected A549 cells, 'as low as'), the “ATO concentration resulting in reduction of PML NB size, number and fluorescent intensity” value came to 6.25 nM. In [1] (varying doses of ATO), the “PML NB immunofluorescence intensity, dose response” value is given as “diminished by exposure to ATO in a dose dependent manner”. In data set [2] (day 8, 10 nM ATO plus or minus GCV), the “cells staining positively for Zta” value was 100%. Moreover, in data set [2] (varying doses of ATO, 72 hours (3 days), two separate EBV infections of A549 cells), the “number of Zta positive cells, dose response” value is on record as “increase in the number of Zta positive cells in an ATO dose responsive manner; also recorded: increases the number of Zta positive cells in a dose dependent manner”. For the same substance, the “ATO dose inducing upregulation of ZTA mRNA” value in data set [3] (48 hours, 'as low as') amounted to 1.25 nM. Further, in data set [3] (setting [11]), the “Zta mRNA expression compared to control” value is given as “increased”. Moreover, the “ATO dose inducing upregulation of BMRF1 mRNA” value in [4] (48 hours, 'as low as', to a lesser extent than ZTA) is 1.25 nM. The “BMRF1 mRNA expression compared to control” value in [4] (setting [11]) is “increased”. For the same substance, the “Zta expression in tumor explant tissue” value in data set [5] was “large pockets of reactivation”. For the same substance, the “viable cells, EBV-negative MUTU cells” value in [6] is on record as “No effect”. The “Zta expression (Western blot), EBV positive MUTU cells” value in data set [7] is given as “markedly enhanced reactivation of the EBV lytic cycle; also recorded: show Zta expression”. For the same substance, the “relative expression of EBNA Cp mRNA” value in data set [8] is reported as “drops dramatically”. For the same substance, in data set [9], the “relative transcription of Zta mRNA” value is reported as “approximately fourfold higher”. In addition, the “percentage of annexin V positive cells” value in data set [10] (control 21%) was found to be 58%. Besides, in data set [10] (EBV positive cells, control 67%), the “percentage of viable cells” value is listed as 35%.
